Experiments:
Plasma stability = assay type: in vitro ADME; design: half-life: dose or concentration left out as unconfirmed; settings: C57/Bl6 plasma, concentration 1 (mM), K2EDTA; for half-life: mouse, read-out: Plasma Stability T ½
UBE2N C87S mutant = molecular target: T1, UBE2N C87S mutant (Homo sapiens, UniProt P61088, C87S); assay: Linear mass spectrometry (MALDI-TOF) analysis of drug binding; settings: MALDI-TOF-MS
T1 construct: purchased Genescript
Method: (§1) Recombinant UBE2N (2 .tg; Life sensors #UB218) in 3 .tl of buffer containing 20 mM Tris-HCl pH 7.4, 10 mM DTT, 10% glycerol, 150 mM NaCl and 0.02% DMSO as well as six samples of 1 .tg UBE2N mixed with 0.2 .tg of UC-764864 or UC-764865 were diluted to 50 ng/uL in 0.1% formic acid (FA) in preparation of MALDI-TOF analysis. Two .tl aliquots from the samples were used to make a 1:5 dilution with MALDI matrix (5 mg/mL sinapic acid in 60% ACN/0.1% formic acid) with 1 .tL spotted onto the target plate for analysis. For UBE2N C87S mutant, recombinant protein was purchased from Genescript. 2 micrograms of protein as well as 3 samples of UBE2N C87S were mixed with 0.4 micrograms of UC-764864 and UC-764865 in 10 microliters of buffer containing 20 mM Tris HCl pH 7.4, 1 mM DTT, 150 mM NaCl and ˜0.01% of DMSO in each sample. All mixtures were brought up to 40 ul by adding 30 ul of 0.1% formic acid (FA). 5 ul aliquots from the samples were used to make a 1:5 dilution with MALDI matrix as described above. All spectra were acquired in Linear Positive Ion Mode on an ABSciex 4800 MALDI-TOF/TOF instrument, with E. coli thioredoxin (11,674.5; MH+ avg) and horse muscle apomyoglobin (15,952.6; MH+ avg) as mass calibration standards. For DSF, all proteins (UBE2N wild type and UBE2N C87S) were used at a final concentration of 5 .tM. SYPRO Orange (Invitrogen 56651, Carlsbad, Calif.) was used at a final concentration of 10× for UBE2N wild type and UBE2N C87S. Experiments were carried out in 20 mM Tris-HCl pH 8, 150 mM NaCl, 1 mM TCEP, and 10% DMSO. UC-764865 was mixed with the proteins at increasing concentrations, each sample was divided into three 25 .tl replicates in 48-well optical plates (Thermo Fisher Scientific 4375816, Waltham, Mass.) and the plate was sealed with optical PCR plate sheet (Thermo Fisher Scientific 4375928). All experiments were performed on a StepOne Real-Time PCR System (Applied Biosystems 4376357, Foster City, Calif.). The temperature was raised in 1° C. increments from 25° C. to 95° C. and fluorescence was measured at 530 nm. Derivative Tm was determined using Protein Thermal Shift Software version 1.3 by Applied Biosystems and then were analyzed with Prism 6 (GraphPad Software Inc.).

UBE2N wild type = molecular target: T2, UBE2N wild type (Homo sapiens, UniProt P61088); assay: as above; settings: MALDI-TOF-MS, incubated with compound
T2 construct: purchased Life sensors UB218
T2 sequence (P61088 1-152): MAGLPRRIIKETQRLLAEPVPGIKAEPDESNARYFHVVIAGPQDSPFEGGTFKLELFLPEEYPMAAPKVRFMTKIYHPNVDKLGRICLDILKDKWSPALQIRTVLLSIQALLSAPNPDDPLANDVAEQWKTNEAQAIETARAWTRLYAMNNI
Method: as §1

UBE2N/UBE2V1 = molecular target: T3, UBE2N/UBE2V1 (Homo sapiens, UniProt P61088); assay: Thioester bond formation assay; assay type: biochemical; settings: read-out: inhibition of UBE2N-Ub thioester conjugate formation
T3 construct: purchased Enzo Life Science BML-UW9565
Method: An in vitro Ubiquitin-E2 thioester (TE) bond formation assay was performed as described (Enzo Life Science, #BML-UW9920-0001, Farmingdale, N.Y.). The reaction was prepared as follows: 10×E2 (UBE2N/Mms2, No. BML-UW9565; UbcH5a, No. BML-UW9050; or UbcH6, Prod. No. BML-UW8710) were incubated with UC-764864 or UC-764865 at 1 or 2 μM for 30 minutes at room temperature. After the incubation period, the following reagents were added to the reaction: distilled water, 10× ubiquitination buffer, inorganic pyrophosphatase solution (100 U/mL in 20 mM Tris-HCl, pH 7.5, Sigma, 83205, St. Louis, Mo.), 50 mM DTT, 0.1 M Mg-ATP, 20×E1 (recombinant human ubiquitin-activating enzyme) and 20× biotinylated ubiquitin to a final volume of 10 p.l. The mixture was incubated for 4 hours at 37° C. The reaction was stopped by adding 10 p.l 2× non-reducing gel loading buffer. 15 p.l of the samples were run on SDS-PAGE gels and transferred to PVDF membrane. […] After washing the membrane for 6×10 mins with TBS-T on a rocking platform, total ubiquitin was detected with ECL detection reagent (Pierce™ ECL Western Blotting Substrate, #32106, Appleton, Wis.) according to the manufacturer's instructions. Detect emitted signal with Biorad ChemiDoc™ MP and analyzed with Image lab software 6.0.1 (Biorad, Hercules, Calif.) or Image J [67]. […]

T1 sequence (P61088 whole entry C87S): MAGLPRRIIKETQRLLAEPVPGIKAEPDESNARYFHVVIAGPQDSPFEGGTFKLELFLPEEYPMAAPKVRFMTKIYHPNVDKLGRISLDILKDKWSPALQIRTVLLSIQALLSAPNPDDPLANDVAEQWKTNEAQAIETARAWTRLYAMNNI
T3 sequence (Q13404 whole entry partner, one chain of several): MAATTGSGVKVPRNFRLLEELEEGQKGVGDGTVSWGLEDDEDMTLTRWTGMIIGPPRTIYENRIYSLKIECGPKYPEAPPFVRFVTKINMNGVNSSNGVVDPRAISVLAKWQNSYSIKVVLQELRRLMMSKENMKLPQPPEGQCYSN

Structure (SMILES)	Plasma Stability % Remaning at T60 (Plasma stability) [%]	half-life (Plasma stability) [min]	binding to recombinant UBE2N(C87S) (mass shift) (UBE2N C87S mutant)	mass shift of wild-type UBE2N protein (UBE2N wild type) [Da]	inhibition at 1 µM (UBE2N/UBE2V1; 1 μM) [%]	inhibition at 2 µM (UBE2N/UBE2V1; 2 μM) [%]
COc1ccc(C(=O)C=CSc2nc3ccc(C)cc3[nH]2)cc1 [UC-764865, 1-(4-methoxyphenyl)-3-[(6-methyl-1H-benzimidazol-2-yl)sulfanyl]prop-2-en-1-one]	39.6	53.6	does not bind	160	–	–
CCc1ccc(C(=O)C=CSc2nc3ccc(C)cc3[nH]2)cc1 [UC-764864, 1-(4-ethylphenyl)-3-[(6-methyl-1H-benzimidazol-2-yl)sulfanyl]prop-2-en-1-one]	21.4	31.8	does not bind	160	20	80
